Data on eight molecules can be found in PMC5298241, “Mitochondria-penetrating peptides conjugated to desferrioxamine as chelators for mitochondrial labile iron” (PLoS ONE, 2017).

Where two headings read alike, the source gives them in different places. Numbered stars: 1 amine (or outer) side, 2 acyl side, 3 side chain; on linkers, the order of the positions; unused ones are H or OH. Square brackets hold non-standard residues; d marks the D form. Peptide text beside a SMILES is read from it. * marks the point of attachment. 5TAMRA = CN(C)c1ccc2c(c1)Oc1cc(N(C)C)ccc1C21OC(=O)c2cc(C(=O)*)ccc21; DFO = CC(=O)N(O)CCCCCNC(=O)CCC(=O)N(O)CCCCCNC(=O)CCC(=O)N(O)CCCCCN*; Cha = N[C@@H](CC1CCCCC1)C(=O)O; Suc = O=C(CCC(=O)[*:2])[*:1]

Assay [1] deals with A2780 cells.
Procedure: (§1) A2780 (human ovarian cancer) cell line was obtained from Fox Chase Cancer Center (USA) and cultured in RPMI-1640 medium supplemented with 10% FBS and 1% penicillin/streptomycin. Cells were incubated at 37°C in a humidified incubator with a 5% CO2.
(§2) A2780 cells were plated in 96-well flat-bottom tissue culture plates (Starstedt) at 25,000 cells per well. The culture medium was removed, and cells were washed. Cellular viability was analyzed after an overnight incubation at 37°C with 5% CO2 using the CCK-8 viability dye (Dojindo, Rockville, Maryland) at an absorbance of 450 nm. From the resulting dose-response curves, 50% growth inhibitory concentration (IC50) values were determined by interpolation [22].
Assay [2] concerns A2780 cells. In words: cells. Particulars: Homo sapiens, A2780, 24 h.
Procedure: as §1, §2
A short description of assay [3]: Antioxidant activity (iron-catalysed oxidation of DHR by ascorbate). The conditions noted are these: 20 μM chelator, 40 μM ascorbic acid, 50 μM DHR in HBS; Fe(NTA) or serum of iron-overloaded patients; 37°C, slopes 15−40 min. Format: biochemical. On the procedure: The standard ferric nitrilotriacetate (Fe(NTA)) complex (1:3 Fe:NTA molar ratio) was prepared by adding FAS to a stock solution of aqueous NTA, and allowed to react for 1 h at 37°C under air so that iron is oxidized to Fe(III) (evidenced by the change of color to deep yellow). Then, 180 μL of a mixture of 40 μM ascorbic acid, 50 μM DHR, and 20 μM chelators (DFO, DFO-Tat, DFO-1A, DFO-SS02 e DFO-SS20) in HBS was placed in a 96-well microplate and treated with 20 μL of either Fe(NTA) at different concentrations or sera from iron overloaded patients. Assays were performed in duplicate. Sera samples were furnished by Dr. Nelson Hamerschlak, Albert Einstein Hospital, São Paulo. Fluorescence was measured in a BMG FluoStar Optima instrument for 60 min at 37°C (λexc/λem = 485/520 nm). The slopes (indicating rate of oxidation, presented in fluorescence units per minute) of the oxidation curves were calculated in the time range 15−40 min and were plotted against iron concentration.

Assay [4] relates to mitochondria of A2780 cells. In words: Mitochondrial localization (colocalization with MitoTracker Deep Red). In kind it is cell-based, human. The conditions noted are these: TAMRA-labeled mtDFO 1–10 μM, 1 h, MitoTracker Deep Red 30 min, epifluorescence microscopy, ImageJ. How it is done:
A2780 cells were seeded in an imaging dish in 2 mL of growth medium at 60% confluence. The growth medium was swapped with premixed medium containing 1–10 μM of TAMRA-mtDFO, and the cells were allowed to incubate with the dye for 1 h. MitoTracker Deep Red was added to the cells at 1.0–4.0 μM concentrations and allowed to incubate for 30 min. At the end of the incubation period, the medium was aspirated, and the cells were washed with 3 × 1 mL PBS and incubated with 2 mL of dye-free DMEM. The imaging experiments were performed using a Zeiss Axiovert 200M inverted epifluorescence microscope equipped with an EM-CCD digital camera (Hamamatsu) and a MS200 XY Piezo Z stage (Applied Scientific Instruments). The light source was an X-Cite 120 metal-halide lamp (EXFO), and the fluorescence images were obtained with an oil-immersion objective at 63× magnification. The microscope was operated by the Volocity software program of Perkin-Elmer. Colocalization of the dyes was quantitated using the program ImageJ using a previously described protocols.

Setting [5] is: A2780 cells, 24 h (overnight incubation at 37°C, 5% CO2), CCK-8 viability dye, absorbance 450 nm, interpolation of dose-response curves, average ± s.d. of at least three independent experiments.

Turning to `CC(=O)N(O)CCCCCNC(=O)CCC(=O)N(O)CCCCCNC(=O)CCC(=O)N(O)CCCCCNC(=O)CCC(=O)N[C@@H](Cc1ccccc1)C(=O)N[C@H](CCCNC(=N)N)C(=O)N[C@@H](Cc1ccccc1)C(=O)N[C@@H](CCCCN)C(=O)N[C@@H](CCCCNC(=O)c1ccc2c(c1)C(=O)OC21c2ccc(N(C)C)cc2Oc2cc(N(C)C)ccc21)C(N)=O` [DFO-SS20-TAMRA] ({DFO-Suc}-F[dR]FKK(5TAMRA)-NH2), inhibition in the assay on A2780 cells [1] (24 h) was half-maximal at 7.91 ± 1.19 µM (IC50).
Take `CC(=O)N(O)CCCCCNC(=O)CCC(=O)N(O)CCCCCNC(=O)CCC(=O)N(O)CCCCCN` [DFO, Desferrioxamine]: the IC50 (as a rule, the concentration that gives 50% inhibition) with A2780 cells [2] stood at 1.45 ± 0.13 mM. For the same molecule, in assay [3], the “Suppression of iron-catalysed oxidation of the DHR probe” value was “efficiently suppressed”.
`CC(=O)N(O)CCCCCNC(=O)CCC(=O)N(O)CCCCCNC(=O)CCC(=O)N(O)CCCCCNC(=O)CCC(=O)N[C@@H](Cc1c(C)cc(O)cc1C)C(=O)N[C@H](CCCNC(=N)N)C(=O)N[C@@H](Cc1ccccc1)C(=O)N[C@@H](CCCCN)C(N)=O` [DFO-SS02]: the 50% inhibitory concentration (IC50) in the assay on A2780 cells [1] (setting [5]) worked out at 42.9 ± 1.06 µM.
For the molecule carboxy-tetramethylrhodamine [TAMRA], in assay [4], the “Rr = Pearson correlation coefficient (colocalization with MitoTracker)” value was “does not locate by itself in the mitochondria”.
In the case of `CC(=O)N(O)CCCCCNC(=O)CCC(=O)N(O)CCCCCNC(=O)CCC(=O)N(O)CCCCCNC(=O)CCC(=O)N[C@@H](CCCNC(=N)N)C(=O)N[C@@H](CCCCN)C(=O)N[C@@H](CCCCN)C(=O)N[C@@H](CCCNC(=N)N)C(=O)N[C@@H](CCCNC(=N)N)C(=O)N[C@@H](CCC(N)=O)C(=O)N[C@@H](CCCNC(=N)N)C(=O)N[C@@H](CCCNC(=N)N)C(=O)N[C@@H](CCCNC(=N)N)C(=O)O` [DFO-TAT], the IC50 in the assay on A2780 cells [1] (setting [5]) came out at 111 ± 1.17 µM.
In the case of `CC(=O)N(O)CCCCCNC(=O)CCC(=O)N(O)CCCCCNC(=O)CCC(=O)N(O)CCCCCNC(=O)CCC(=O)N[C@@H](CC1CCCCC1)C(=O)N[C@H](CCCNC(=N)N)C(=O)N[C@@H](CC1CCCCC1)C(=O)N[C@@H](CCCCN)C(=O)N[C@@H](CC1CCCCC1)C(=O)N[C@H](CCCNC(=N)N)C(=O)N[C@@H](CC1CCCCC1)C(=O)N[C@@H](CCCCN)C(=O)N[C@@H](CCCCNC(=O)c1ccc2c(c1)C(=O)OC21c2ccc(N(C)C)cc2Oc2cc(N(C)C)ccc21)C(N)=O` [DFO-1A-TAMRA] ({DFO-Suc}-[Cha][dR][Cha]K[Cha][dR][Cha]KK(5TAMRA)-NH2), inhibition in the assay with A2780 cells [1] (24 h) was half-maximal at 2.97 ± 1.06 µM (IC50).
Same read-out and setting: the result for `CC(=O)N(O)CCCCCNC(=O)CCC(=O)N(O)CCCCCNC(=O)CCC(=O)N(O)CCCCCNC(=O)CCC(=O)N[C@@H](Cc1ccccc1)C(=O)N[C@H](CCCNC(=N)N)C(=O)N[C@@H](Cc1ccccc1)C(=O)N[C@@H](CCCCN)C(N)=O` [DFO-SS20] ({DFO-Suc}-F[dR]FK-NH2) reads 62.4 ± 1.13 µM; that for `CC(=O)N(O)CCCCCNC(=O)CCC(=O)N(O)CCCCCNC(=O)CCC(=O)N(O)CCCCCNC(=O)CCC(=O)N[C@@H](CC1CCCCC1)C(=O)N[C@H](CCCNC(=N)N)C(=O)N[C@@H](CC1CCCCC1)C(=O)N[C@@H](CCCCN)C(=O)N[C@@H](CC1CCCCC1)C(=O)N[C@H](CCCNC(=N)N)C(=O)N[C@@H](CC1CCCCC1)C(=O)N[C@@H](CCCCN)C(N)=O` [DFO-1A] ({DFO-Suc}-[Cha][dR][Cha]K[Cha][dR][Cha]K-NH2), 108 ± 2.51 µM.
